Square brackets hold non-standard residues; d marks the D form. Peptide text beside a SMILES is read from it. * marks the point of attachment. ξ: configuration not given here. Pro(cis-4-CF3) = O=C(O)[C@@H]1C[C@H](C(F)(F)F)CN1; Oic(3aξ,7aξ) = O=C(O)[C@@H]1CC2CCCCC2N1; Pro(4R-NH2) = N[C@H]1CN[C@H](C(=O)O)C1; Dab(3S-OH) = NC[C@H](O)[C@H](N)C(=O)O; ΔZArg = N=C(N)NCC/C=C(\N)C(=O)O; aThr = C[C@H](O)[C@H](N)C(=O)O; dOrn = NCCC[C@@H](N)C(=O)O; Orn = NCCC[C@H](N)C(=O)O; Dab = NCC[C@H](N)C(=O)O; NH(CH2)5NH2 = NCCCCCN*; NH(CH2)4NH2 = NCCCCN*; ξAze = O=C(O)C1CCN1; NHOH = ON*
What was measured:
Test in all cases: MIC, broth microdilution (CLSI), reference strain
Conditions in all cases: CAMHB
[1] = system: Escherichia coli ATCC 25922
[2] = system: Acinetobacter baumannii ATCC 19606
[3] = system: Staphylococcus aureus ATCC 13709
[4] = system: Pseudomonas aeruginosa ATCC 27853

Structure (SMILES)	Ec: MIC Escherichia coli ATCC 25922 [1]	Ab: MIC Acinetobacter baumannii ATCC 19606 [2]	Sa: MIC Staphylococcus aureus ATCC 13709 [3]	Pa: MIC Pseudomonas aeruginosa ATCC 27853 [4]
C[C@H](NC(=O)[C@H](CCN)NC(=O)[C@@H](N)CCCCN)C(=O)NCC(=O)N[C@H](CCCN)C(=O)N1CCC[C@H]1C(=O)N[C@@H](Cc1cnc[nH]1)C(=O)N[C@@H](CCCCN)C(=O)N/C(=C\CCNC(=N)N)C(=O)N[C@@H](CCCCN)C(=O)NO [14.14] (H-K[Dab]AG[dOrn]PHK[ΔZArg]K-{NHOH})	− (>32 μg/mL)	− (>32 μg/mL)	++ (≤8 μg/mL)	− (>32 μg/mL)
C[C@H](NC(=O)[C@H](CCN)NC(=O)[C@@H](N)CCCCN)C(=O)NCC(=O)N[C@H](CCCN)C(=O)N1C[C@@H](C(F)(F)F)C[C@H]1C(=O)N[C@@H](Cc1cnc[nH]1)C(=O)N[C@@H](CCCCN)C(=O)N/C(=C\CCNC(=N)N)C(=O)N[C@@H](CCCCN)C(=O)NCCCCN [14.15] (H-K[Dab]AG[dOrn][Pro(cis-4-CF3)]HK[ΔZArg]K-{NH(CH2)4NH2})	− (>32 μg/mL)	− (>32 μg/mL)	++ (≤8 μg/mL)	− (>32 μg/mL)
C[C@H](NC(=O)[C@H](CCN)NC(=O)[C@@H](N)CCCN)C(=O)NCC(=O)N[C@H](CCCN)C(=O)N1CCC[C@H]1C(=O)N[C@@H](Cc1cnc[nH]1)C(=O)N[C@@H](CCCCN)C(=O)N/C(=C\CCNC(=N)N)C(=O)N[C@@H](CCCCN)C(=O)NCCCCN [14.16] (H-[Orn][Dab]AG[dOrn]PHK[ΔZArg]K-{NH(CH2)4NH2})	− (>32 μg/mL)	− (>32 μg/mL)	++ (≤8 μg/mL)	− (>32 μg/mL)
C[C@H](NC(=O)[C@H](CCN)NC(=O)[C@@H](N)CCCCN)C(=O)NCC(=O)N[C@H](CCCN)C(=O)N1C[C@H](N)C[C@H]1C(=O)N[C@@H](Cc1cnc[nH]1)C(=O)N[C@@H](CCCCN)C(=O)N/C(=C\CCNC(=N)N)C(=O)N[C@@H](CCCCN)C(=O)NCCCCN [14.17] (H-K[Dab]AG[dOrn][Pro(4R-NH2)]HK[ΔZArg]K-{NH(CH2)4NH2})	− (>32 μg/mL)	− (>32 μg/mL)	++ (≤8 μg/mL)	− (>32 μg/mL)
C[C@H](NC(=O)[C@H](CCN)NC(=O)[C@@H](N)CCCCN)C(=O)NCC(=O)N[C@H](CCCN)C(=O)N1CCC1C(=O)N[C@@H](Cc1cnc[nH]1)C(=O)N[C@@H](CCCCN)C(=O)N/C(=C\CCNC(=N)N)C(=O)N[C@@H](CCCCN)C(=O)NCCCCN (stereo partly shown) [14.18] (H-K[Dab]AG[dOrn][ξAze]HK[ΔZArg]K-{NH(CH2)4NH2})	− (>32 μg/mL)	− (>32 μg/mL)	++ (≤8 μg/mL)	− (>32 μg/mL)
C[C@H](NC(=O)[C@H](CCN)NC(=O)[C@@H](N)CCCCN)C(=O)NCC(=O)N[C@H](CCCN)C(=O)N1C2CCCCC2C[C@H]1C(=O)N[C@@H](Cc1cnc[nH]1)C(=O)N[C@@H](CCCCN)C(=O)N/C(=C\CCNC(=N)N)C(=O)N[C@@H](CCCCN)C(=O)NCCCCN (stereo partly shown) [14.19] (H-K[Dab]AG[dOrn][Oic(3aξ,7aξ)]HK[ΔZArg]K-{NH(CH2)4NH2})	− (>32 μg/mL)	− (>32 μg/mL)	++ (≤8 μg/mL)	− (>32 μg/mL)
C[C@H](NC(=O)[C@H](CCN)NC(=O)[C@@H](N)CCCCN)C(=O)NCC(=O)N[C@H](CCCN)C(=O)N1CCC[C@H]1C(=O)N[C@@H](Cc1cnc[nH]1)C(=O)N[C@@H](CCCCN)C(=O)N/C(=C\CCNC(=N)N)C(=O)NCCCCCN [14.20] (H-K[Dab]AG[dOrn]PHK[ΔZArg]-{NH(CH2)5NH2})	− (>32 μg/mL)	− (>32 μg/mL)	+ (≤32 μg/mL)	− (>32 μg/mL)
C[C@H](NC(=O)[C@H](CCN)NC(=O)[C@@H](N)CCCCN)C(=O)NCC(=O)N[C@H](CCCN)C(=O)N1CCC[C@H]1C(=O)N[C@@H](Cc1cnc[nH]1)C(=O)N[C@@H](CCCCN)C(=O)N/C(=C\CCNC(=N)N)C(=O)N[C@@H](CCCCN)C(=O)O [14.21] (H-K[Dab]AG[dOrn]PHK[ΔZArg]K-OH)	− (>32 μg/mL)	− (>32 μg/mL)	+ (≤32 μg/mL)	− (>32 μg/mL)
C[C@H](NC(=O)[C@H](CCN)NC(=O)[C@H](N)CCCCN)C(=O)NCC(=O)N[C@H](CCCN)C(=O)N1CCC[C@H]1C(=O)N[C@@H](Cc1cnc[nH]1)C(=O)N[C@@H](CCCCN)C(=O)N/C(=C\CCNC(=N)N)C(=O)N[C@@H](CCCCN)C(=O)NCCCCN [14.22] (H-[dK][Dab]AG[dOrn]PHK[ΔZArg]K-{NH(CH2)4NH2})	− (>32 μg/mL)	− (>32 μg/mL)	+ (≤32 μg/mL)	− (>32 μg/mL)
C[C@H](NC(=O)/C(=C/CCNC(=N)N)NC(=O)[C@H](CCCCN)NC(=O)[C@H](Cc1cnc[nH]1)NC(=O)[C@@H]1CCCN1C(=O)[C@@H](CCCN)NC(=O)CNC(=O)[C@H](C)NC(=O)[C@H](CCN)NC(=O)[C@@H](N)CCCCN)C(=O)NCCCCN [14.23] (H-K[Dab]AG[dOrn]PHK[ΔZArg]A-{NH(CH2)4NH2})	− (>32 μg/mL)	− (>32 μg/mL)	+ (≤32 μg/mL)	− (>32 μg/mL)
C[C@H](NC(=O)[C@H](CCN)NC(=O)[C@@H](N)CCCCN)C(=O)NCC(=O)N[C@H](CCCN)C(=O)N1CCC[C@H]1C(=O)N[C@@H](Cc1cnc[nH]1)C(=O)N[C@@H](CCCCN)C(=O)N[C@H](CCCNC(=N)N)C(=O)N[C@@H](CCCCN)C(=O)NCCCCN [14.24] (H-K[Dab]AG[dOrn]PHK[dR]K-{NH(CH2)4NH2})	− (>32 μg/mL)	− (>32 μg/mL)	+ (≤32 μg/mL)	− (>32 μg/mL)
C[C@H](NC(=O)[C@H](CCN)NC(=O)[C@@H](N)CCN)C(=O)NCC(=O)N[C@H](CCCN)C(=O)N1CCC[C@H]1C(=O)N[C@@H](Cc1cnc[nH]1)C(=O)N[C@@H](CCCCN)C(=O)N/C(=C\CCNC(=N)N)C(=O)N[C@@H](CCCCN)C(=O)NCCCCN [14.25] (H-[Dab][Dab]AG[dOrn]PHK[ΔZArg]K-{NH(CH2)4NH2})	− (>32 μg/mL)	− (>32 μg/mL)	+ (≤32 μg/mL)	− (>32 μg/mL)
C[C@H](O)[C@H](NC(=O)[C@H](CCN)NC(=O)[C@@H](N)CCCCN)C(=O)NCC(=O)N[C@H](CCCN)C(=O)N1CCC[C@H]1C(=O)N[C@@H](Cc1cnc[nH]1)C(=O)N[C@@H](CCCCN)C(=O)N/C(=C\CCNC(=N)N)C(=O)N[C@@H](CCCCN)C(=O)NCCCCN [15.1] (H-K[Dab][aThr]G[dOrn]PHK[ΔZArg]K-{NH(CH2)4NH2})	− (>32 μg/mL)	− (>32 μg/mL)	+ (≤32 μg/mL)	− (>32 μg/mL)
C[C@@H](O)[C@H](NC(=O)[C@H](CCN)NC(=O)[C@@H](N)CCCCN)C(=O)NCC(=O)N[C@H](CCCN)C(=O)N1CCC[C@H]1C(=O)N[C@@H](Cc1cnc[nH]1)C(=O)N[C@@H](CCCCN)C(=O)N/C(=C\CCNC(=N)N)C(=O)N[C@@H](CCCCN)C(=O)NCCCCN [15.3] (H-K[Dab]TG[dOrn]PHK[ΔZArg]K-{NH(CH2)4NH2})	− (>32 μg/mL)	− (>32 μg/mL)	++ (≤8 μg/mL)	− (>32 μg/mL)
N=C(N)NCC/C=C(\NC(=O)[C@H](CCCCN)NC(=O)[C@H](Cc1cnc[nH]1)NC(=O)[C@@H]1CCCN1C(=O)[C@@H](CCCN)NC(=O)CNC(=O)[C@H](CO)NC(=O)[C@H](CCN)NC(=O)[C@@H](N)CCCCN)C(=O)N[C@@H](CCCCN)C(=O)NCCCCN [16.1] (H-K[Dab]SG[dOrn]PHK[ΔZArg]K-{NH(CH2)4NH2})	− (>32 μg/mL)	− (>32 μg/mL)	++ (≤8 μg/mL)	− (>32 μg/mL)
N=C(N)NCC/C=C(\NC(=O)[C@H](CCCCN)NC(=O)[C@H](Cc1cnc[nH]1)NC(=O)[C@@H]1CCCN1C(=O)[C@@H](CCCN)NC(=O)CNC(=O)[C@H](CCN)NC(=O)[C@@H](NC(=O)[C@@H](N)CCCCN)[C@@H](O)CN)C(=O)O [21.2] (H-K[Dab(3S-OH)][Dab]G[dOrn]PHK[ΔZArg]-OH)	++ (≤8 μg/mL)	− (>32 μg/mL)	++ (≤8 μg/mL)	− (>32 μg/mL)

Source: patent publication US10626144B2, “Peptide derivatives and uses thereof” (Nosopharm, priority 2014, dated 2020)
